Source: patent US6126909A, “Process and apparatus for the production of BI-212 and a use thereof” (Arch Development Corporation, priority 1999, dated 2000)

Assays:
[1] = tested on: microscopic disease (ovarian carcinoma); settings: stage I and stage II patients; cited from earlier work
V-79 cells = experiment: In vitro irradiation survival (clonogenic), monolayer; format: cell-based, Chinese hamster; settings: V-79 monolayer
Procedure: (§1) In vitro studies were carried out using three well known cell lines, the cells from which were exposed to radiation from: (1) an X-ray source; (2) P-32 chromic phosphate; and (3) Bi-212 chloride. The three cell lines that were used are V-79, which is a Chinese hamster lung fibroblast, Ehrlich-Lettre Ascites carcinoma (ATCC CCL 77), which is an ascites producing -tumor, and NIH:OVCAR-3 (ATCC HTB 161), which is a human ovarian adenocarcinoma. These well known cell lines are predictive of what happens in vivo. The cells were grown as monolayers and into spheroid formations and subsequently irradiated, as described herein.
(§2) The V-79 cells were maintained under exponential growth conditions in minimal essential medium (MEM) supplemented with 10 percent fetal bovine serum. The Ehrlich-Lettre Ascites carcinoma cells were maintained in 90 percent NCTC 109 supplemented with 10 percent fetal bovine serum. The NIH:OVCAR-3 cells were maintained in RPMI 1640 and 10 percent fetal bovine serum.
(§3) Cells from each of the cell lines were irradiated by subjecting the cells to X-ray radiation, P-32, and Bi-212. The X-ray source that was used is a General Electric 250 kvp Maxitron, 26 […] (mA) (HVL 1.5 mm Cu) operated at a dose rate of 1.11 Greys per minute (Gy/min). The cells, in both monolayer and spheroid form were exposed at room temperature and then immediately plated for survival.
(§4) Cells in both monolayer and spheroid were exposed to P-32 chromic phosphate. The radiation dose to each sample was calculated as: […]
(§5) After exposure, the cells were washed in phosphate-buffered saline (PBS) and immediately plated for survival.
(§6) The cell lines were also irradiated using Bi-212. Bismuth-212 was eluted from a generator as described in the aforementioned patent to Atcher et al., which was a cation-exchange column supporting Ra-224, with 1 ml of 0.15 N HI, and the generator was purged with 2 ml of distilled deionized water. […] The filter was purged with 1 ml of distilled deionized water, and the radioactivity was assayed using a calibrated 3×3-in. […]
(§7) Cells were exposed over a period of four hours. The dose (D) per microCurie was calculated and corrected for decay as follows: [formula] where V=volume in milliliters, and […]
(§8) Following plating, survival measurements were taken for each of the irradiated cell samples. […] The plates were then stained with crystal violet and colonies greater than 50 cells were scored. The surviving fraction was then determined.
(§9) Intrinsic radiosensitivity (Do) was calculated from the survival curves. […] Relative biological effectiveness (RBE) was determined as the ratio of the absorbed dose of X-ray to that of alpha radiation to produce the same degree of biological effect.

NIH:OVCAR-3 cells = experiment: as above; format: cell-based, human; settings: OVCAR-3 monolayer
Procedure: as §1, §2, §3, §4, §5, §6, §7, §8, §9

[2] = tested on: NIH:OVCAR-3 cells (spheroids); experiment: In vitro irradiation survival, spheroids; format: cell-based, human; settings: OVCAR-3 spheroids
Procedure: as §1, §2
To initiate the formation of the spheroids, cells at a concentration of about 500,000 cells per flask were seeded onto petri dishes base-cooked with 1 percent agar MEM without serum. After spheroids having a size of about 20 micrometers (μm) formed, the spheroids were transferred to spinner bottles and maintained for two to three weeks at a temperature of 37° C. in a CO2 incubator until they grew to 10 to 1000 μm. Prior to irradiation, the spheroids were sized and separated using a spheroid separation column.
as §3, §4, §5
The cell lines were also irradiated using Bi-212. […] The filter was purged with 1 ml of distilled deionized water, and the radioactivity was assayed using a calibrated 3×3-in. […]
as §7, §8
Intrinsic radiosensitivity (Do) was calculated from the survival curves. […]

microscopic carcinoma = settings: in vivo; cited from earlier work
[3] = dose increment reducing survival to 37 percent

O=[32P]([O-])([O-])[O-].[Cr+3] [P-32 chromic phosphate, chromic phosphate (P-32), reference compound]
Five-year survival rate [1]: 81%
D0 (intrinsic radiosensitivity) (V-79 cells; [3]): 1.25 Gy
Relative biological effectiveness (RBE) (V-79 cells; relative to X-ray): 1.63
D0 (intrinsic radiosensitivity) (NIH:OVCAR-3 cells; [3]): 1.40 Gy
Relative biological effectiveness (RBE) (NIH:OVCAR-3 cells; relative to X-ray): 1.43
D0 (intrinsic radiosensitivity) ([2]; dose to 37 percent survival): 1.1 Gy
Relative biological effectiveness (RBE) ([2]; relative to X-ray): 1.07

[211At] [At-211, astatine-211]
Treatment and eradication of microscopic carcinoma (microscopic carcinoma): effective in the treatment and eradication of microscopic carcinoma

[212Pb] [Pb-212, lead-212]
Treatment and eradication of microscopic carcinoma (microscopic carcinoma): effective in the treatment and eradication of microscopic carcinoma
